Laboratory results published in patent publication US20240101563A1, “NOVEL COMPOUNDS” (AC Immune SA, priority 2022, published 2024).
Structures can show the parent of a compound that is named as a salt. Where two headings read alike, the source gives them in different places.

Test system: NLRP3 inflammasome pathway
Assay: NLRP3 inflammasome pathway activation assay, MSU stimulation, IL-1β HTRF
Format: cell-based
Settings: read-out: IC50 Human monocyte-like cells MSU
Method: The following assays were used to determine the inhibitory activity of test compounds on the NLRP3 inflammasome pathway using common stimuli Nigericin (Invivogen) or monosodium urate crystals (MSU) (Invivogen).
Human monocyte-like cells were cultured in RPMI-1640 Glutamax medium supplemented with 10% heat inactivated FBS (Fetal Bovine Serum) and 50 U/mL penicillin-streptomycin (Life Technologies).
Human monocyte-like cells were seeded at 25000 per well in a 384-well plate and were differentiated overnight into macrophages with 10 ng/mL PMA (Phorbol Myristate Acetate). The following day, medium containing 10 ng/mL LPS (Lipopolysaccharide) was added. After 3 hours of LPS priming, concentrations of test compound in the range from […] were added 30 min prior to NLRP3 inflammasome pathway stimulation with Nigericin 3.75 μM or MSU 200 μg/mL for 3 h.
For IL-1p quantification, supernatants were analyzed using HTRF kit according to the manufacturer's instructions (Cisbio 62HIL1BPEH). Briefly, in a 384-well ProxiPlate™ microplate, 8 μl of sample was mixed, with 5 μl of Anti-IL1β Cryptate antibody (40×) and Anti-IL1β XL antibody (40×). Then, incubated overnight at RT. Reading was done using an EnVision Reader (PerkinElmer).
IC50 (concentration corresponding to 50% inhibition) were determined using GraphPad Prism 9.

[1] = Homo sapiens, 3 h, Table 7, PMA-differentiated, LPS-primed cells, MSU 200 μg/mL for 3 h, IL-1β release
[2] = Table 7, PMA-differentiated, LPS-primed cells, MSU 200 μg/mL for 3 h, IL-1β release
[3] = Homo sapiens, 3 h, Table 8 (formula II′/II vs formula III), MSU 200 μg/mL for 3 h, IL-1β release

| SMILES | IC50 [1] | also measured |
| --- | --- | --- |
| Cc1cc(C(F)(F)F)cc(O)c1-c1nc2nc(NC3CCN(C)C3)ccc2n1C(C)C (centres unmarked) [Example 10, 2-(1-isopropyl-5-((1-methylpyrrolidin-3-yl)amino)-1H-imidazo[4,5-b]pyridin-2-yl)-3-methyl-5-(trifluoromethyl)phenol] | < 100 nM | – |
| Cc1cc(C(F)(F)F)cc(O)c1-c1nc2nc(N3CCC(C)(O)CC3)cnc2n1C [Example 75, 1-[2-[2-hydroxy-6-methyl-4-(trifluoromethyl)phenyl]-1-methyl-imidazo[4,5-b]pyrazin-5-yl]-4-methyl-piperidin-4-ol] | – | IC50 (Homo sapiens, 3 h): 100 to 1000 nM |
| CN1CC[C@@H](Nc2ccc3c(n2)nc(-c2ccc(C(F)(F)F)cc2O)n3C)C1 (single isomer, unassigned) [Example 19, 2-(1-methyl-5-((1-methylpyrrolidin-3-yl)amino)-1H-imidazo[4,5-b]pyridin-2-yl)-5-(trifluoromethyl)phenol] | < 100 nM | – |
| CCn1c(-c2ccc(C(F)(F)F)cc2O)nc2nc(NCCO)ccc21 [Example 16, 2-(1-ethyl-5-((2-hydroxyethyl)amino)-1H-imidazo[4,5-b]pyridin-2-yl)-5-(trifluoromethyl)phenol] | 100 to 1000 nM | – |
| CC(C)n1c(-c2ccc(C(F)(F)F)cc2O)nc2nc(NC3CCN(C)C3)ccc21 (single isomer, unassigned) [Example 10A, 2-(1-isopropyl-5-((1-methylpyrrolidin-3-yl)amino)-1H-imidazo[4,5-b]pyridin-2-yl)-5-(trifluoromethyl)phenol] | 100 to 1000 nM | – |
| Cc1cc(Cl)cc(O)c1-c1nc2nc(OC3CC(F)(F)C3)ccc2n1C [Example 39, 5-chloro-2-(5-(3,3-difluorocyclobutoxy)-1-methyl-1H-imidazo[4,5-b]pyridin-2-yl)-3-methylphenol] | – | IC50 (Homo sapiens, 3 h): 100 to 1000 nM |
| CCn1c(-c2c(C)cc(C(F)(F)F)cc2O)nc2nc(NC3CCN(C)C3)ccc21 (single isomer, unassigned) [Example 8, 2-(1-ethyl-5-((1-methylpyrrolidin-3-yl)amino)-1H-imidazo[4,5-b]pyridin-2-yl)-3-methyl-5-(trifluoromethyl)phenol] | < 100 nM | – |
| Cn1c(-c2ccc(C(F)(F)F)cc2O)nc2nc(NCC(C)(C)O)ccc21 [Example 5, 2-(5-((2-hydroxy-2-methylpropyl)amino)-1-methyl-1H-imidazo[4,5-b]pyridin-2-yl)-5-(trifluoromethyl)phenol] | 100 to 1000 nM | – |
| Cc1cc(C(F)(F)F)cc(O)c1-c1nc2nc(NC3CCCC3O)ccc2n1C (centres unmarked) [Example 36] | – | IC50 [2]: 100 to 1000 nM |
| COc1nc2nc(-c3ccc(C(F)(F)F)cc3O)n(C)c2cc1CO [Example 51, 2-(6-(hydroxymethyl)-5-methoxy-1-methyl-1H-imidazo[4,5-b]pyridin-2-yl)-5-(trifluoromethyl)phenol] | < 100 nM | – |
| CCn1c(-c2ccc(C(F)(F)F)cc2O)nc2nc(NC)ccc21 [Example 14, 2-(1-ethyl-5-(methylamino)-1H-imidazo[4,5-b]pyridin-2-yl)-5-(trifluoromethyl)phenol] | 100 to 1000 nM | – |
| Cc1cc(Cl)cc(O)c1-c1nc2nc(N3CC[C@@H]4CCN(C)C[C@@H]43)cnc2n1C (relative stereo) [Example 77B, 5-chloro-3-methyl-2-[1-methyl-5-[rel-(3aS,7aR)-6-methyl-3,3a,4,5,7,7a-hexahydro-2H-pyrrolo[2,3-c]pyridin-1-yl]imidazo[4,5-b]pyrazin-2-yl]phenol] | – | IC50 [2]: < 100 nM |
| Cn1c(-c2ccc(C(F)(F)F)cc2O)nc2nc(NCCO)ccc21 [Example 1, 2-(5-((2-hydroxyethyl)amino)-1-methyl-1H-imidazo[4,5-b]pyridin-2-yl)-5-(trifluoromethyl)phenol] | 100 to 1000 nM | IC50 [3]: 100 to 500 nM |
| Cn1c(-c2ccc(C(F)(F)F)cc2O)nc2nc(N[C@@H]3CCC[C@@H](O)C3)ccc21 (relative stereo) [Example 22A, 2-(5-((3-hydroxycyclohexyl)amino)-1-methyl-1H-imidazo[4,5-b]pyridin-2-yl)-5-(trifluoromethyl)phenol] | 100 to 1000 nM | – |
| Cc1cc(C(F)(F)F)cc(O)c1-c1nc2nc(O[C@@H]3CCN(C)C3)ccc2n1C [Example 28, (R)-3-methyl-2-(1-methyl-5-((1-methylpyrrolidin-3-yl)oxy)-1H-imidazo[4,5-b]pyridin-2-yl)-5-(trifluoromethyl)phenol] | < 100 nM | – |
| CN1CCC[C@@H](Nc2nc3nc(-c4ccc(C(F)(F)F)cc4O)ccc3n2C)C1 [Example 83, (R)-2-(1-methyl-2-((1-methylpiperidin-3-yl)amino)-1H-imidazo[4,5-b]pyridin-5-yl)-5-(trifluoromethyl)phenol] | – | IC50 [3]: > 1500 nM |

Second part, led by results:

| IC50 [1] | SMILES | also measured |
| --- | --- | --- |
| < 100 nM | Cc1cc(Cl)cc(O)c1-c1nc2nc(O[C@@H]3CCN(C)C3)cnc2n1C [Example 58, (R)-5-chloro-3-methyl-2-(1-methyl-5-((1-methylpyrrolidin-3-yl)oxy)-1H-imidazo[4,5-b]pyrazin-2-yl)phenol formate Salt] | – |
| < 100 nM | Cc1cc(C(F)(F)F)cc(O)c1-c1nc2nc(N[C@@H]3CCN(C)C3)c(F)cc2n1C [Example 46, (R)-2-(6-fluoro-1-methyl-5-((1-methylpyrrolidin-3-yl)amino)-1H-imidazo[4,5-b]pyridin-2-yl)-3-methyl-5-(trifluoromethyl)phenol] | – |
| < 100 nM | COc1nc2nc(-c3c(C)cc(C(F)(F)F)cc3O)n(C)c2nc1CO [Example 65, 2-(6-(hydroxymethyl)-5-methoxy-1-methyl-1H-imidazo[4,5-b]pyrazin-2-yl)-3-methyl-5-(trifluoromethyl)phenol] | – |
| < 100 nM | Cc1cc(F)cc(O)c1-c1nc2nc(N(C)[C@@H]3CCN(C)C3)cnc2n1C [Example 74, (R)-5-fluoro-3-methyl-2-(1-methyl-5-(methyl(1-methylpyrrolidin-3-yl)amino)-1H-imidazo[4,5-b]pyrazin-2-yl)phenol] | – |
| 100 to 1000 nM | COc1ccc2c(n1)nc(-c1c(C)cc(C(F)(F)F)cc1O)n2C(C)C [Example 34, 2-(1-isopropyl-5-methoxy-1H-imidazo[4,5-b]pyridin-2-yl)-3-methyl-5-(trifluoromethyl)phenol] | – |
| 100 to 1000 nM | Cc1cc(Cl)cc(O)c1-c1nc2nc(N3CCN(C)CC3)cnc2n1C [Example 69, 5-chloro-3-methyl-2-(1-methyl-5-(4-methylpiperazin-1-yl)-1H-imidazo[4,5-b]pyrazin-2-yl)phenol] | – |
| 100 to 1000 nM | COc1nc2nc(-c3c(C)cc(C(F)(F)F)cc3O)n(C)c2cc1C(C)(C)O [Example 57, 2-[6-(1-hydroxy-1-methyl-ethyl)-5-methoxy-1-methyl-imidazo[4,5-b]pyridin-2-yl]-3-methyl-5-(trifluoromethyl)phenol] | – |
| 100 to 1000 nM | Cc1cc(Cl)cc(O)c1-c1nc2nc(OCC(F)(F)F)ccc2n1C [Example 38, 5-chloro-3-methyl-2-(1-methyl-5-(2,2,2-trifluoroethoxy)-1H-imidazo[45-b]pyridin-2-yl)phenol] | – |
| < 100 nM | Cc1cc(Cl)cc(O)c1-c1nc2nc(N3CCC(C)(O)CC3)cnc2n1C [Example 80, 1-[2-(4-chloro-2-hydroxy-6-methyl-phenyl)-1-methyl-imidazo[4,5-b]pyrazin-5-yl]-4-methyl-piperidin-4-ol] | – |
| < 100 nM | Cc1cc(C(F)(F)F)cc(O)c1-c1nc2nc(N3CCOCC3)cnc2n1C [Example 61, 3-methyl-2-(1-methyl-5-morpholino-1H-imidazo[4,5-b]pyrazin-2-yl)-5-(trifluoromethyl)phenol] | – |
| 100 to 1000 nM | COc1ccc2cn(-c3ccc(C(F)(F)F)cc3O)nc2n1 [Example 42] | – |
| < 100 nM | Cc1cc(Cl)cc(O)c1-c1nc2nc(N3CCC(O)C3)cnc2n1C (single isomer, unassigned) [Example 85A] | – |
| < 100 nM | COc1cnc2c(n1)nc(-c1c(C)cc(Cl)cc1O)n2C [Example 59, 5-chloro-2-(5-methoxy-1-methyl-imidazo[4,5-b]pyrazin-2-yl)-3-methyl-phenol formate Salt] | – |
| 100 to 1000 nM | Cc1cc(C(F)(F)F)cc(O)c1-c1nc2nc(N3CCN(C)CC3)cnc2n1C [Example 68, 3-methyl-2-(1-methyl-5-(4-methylpiperazin-1-yl)-1H-imidazo[4,5-b]pyrazin-2-yl)-5-(trifluoromethyl)phenol] | – |
| < 100 nM | Cc1cc(Cl)cc(O)c1-c1nc2nc(N3CCC(O)CC3)cnc2n1C [Example 78, 1-[2-(4-chloro-2-hydroxy-6-methyl-phenyl)-1-methyl-imidazo[4,5-b]pyrazine-5-yl]piperidin-4-ol] | – |
| < 100 nM | CN1CC[C@@H](Oc2cnc3c(n2)nc(-c2c(O)cc(Cl)cc2F)n3C)C1 [Example 87, 5-chloro-3-fluoro-2-[1-methyl-5-[(3R)-1-methylpyrrolidin-3-yl]oxy-imidazo[4,5-b]pyrazin-2-yl]phenol] | – |
| 100 to 1000 nM | CCn1c(-c2c(C)cc(Cl)cc2O)nc2nc(OC)ccc21 [Example 30, 5-chloro-2-(1-ethyl-5-methoxy-1H-imidazo[4,5-b]pyridin-2-yl)-3-methylphenol] | – |
| < 100 nM | Cc1cc(Cl)cc(O)c1-c1nc2nc(N3CCC(C)(O)C3)cnc2n1C (single isomer, unassigned) [Example 86A] | – |
